Test results reported in ChEMBL document CHEMBL1201862, “PubChem BioAssay data set” (2004).
The source made the active and inactive calls.

Columns and labels:
[1] = HEp-2 cell cytotoxicity, dose response, cytotoxicity control for RSV inhibitor project, HTS (AID 2410); type: functional; conditions: human respiratory syncytial virus
[2] = THP-1 cell cytotoxicity, dose response, cytotoxicity control for non-replicating M. tuberculosis project (AID 489025); type: functional
[3] = HepG2 cell cytotoxicity, dose response, cytotoxicity control for non-replicating M. tuberculosis project (AID 489018); type: functional; conditions: Mycobacterium tuberculosis
cells = type: functional
Protein Tat = biological target: T1, Protein Tat (Human immunodeficiency virus type 1 group M subtype B (isolate HXB2)(HIV-1), UniProt P04608); type: functional;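 further: tat binding to TAR RNA read out by fluorescence polarization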
T1 sequence (P04608 whole entry): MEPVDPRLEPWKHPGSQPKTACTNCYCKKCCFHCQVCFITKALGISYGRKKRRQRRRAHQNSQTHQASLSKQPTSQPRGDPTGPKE

[4] = inhibitors of Vif binding to APOBEC3G peptide, primary screen, biochemical, TR-FRET, GST-Vif 1-94, biotin-A3G peptide, dose response retest (AID 1117319); type: functional;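 further: TR-FRET signal of purified GST-Vif binding a biotinylated A3G peptide; inhibitors lower the FRET signal by blocking Vif and A3G binding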
HeLa = experiment: HeLa cell cytotoxicity, dose response, cytotoxicity control, 24 h, cherry-picked samples (AID 504726); type: functional, cell-based; conditions: Homo sapiens;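 further: potency for cytotoxicity as loss of luminescence signal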
[5] = biological target: Eukaryotic translation initiation factor 4E (Mus musculus, UniProt P63073); experiment: eIF4E–eIF4G protein interaction inhibitors, dose response, biochemical, TR-FRET (AID 855); type: functional;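 further: potency for disrupting eIF4E binding to eIF4GI seen as loss of FRET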
Estrogen receptor = biological target: T2, Estrogen receptor (Homo sapiens, UniProt P03372);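 further: potency for inhibiting coactivator peptide recruitment to the receptor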
T2 sequence (P03372 whole entry): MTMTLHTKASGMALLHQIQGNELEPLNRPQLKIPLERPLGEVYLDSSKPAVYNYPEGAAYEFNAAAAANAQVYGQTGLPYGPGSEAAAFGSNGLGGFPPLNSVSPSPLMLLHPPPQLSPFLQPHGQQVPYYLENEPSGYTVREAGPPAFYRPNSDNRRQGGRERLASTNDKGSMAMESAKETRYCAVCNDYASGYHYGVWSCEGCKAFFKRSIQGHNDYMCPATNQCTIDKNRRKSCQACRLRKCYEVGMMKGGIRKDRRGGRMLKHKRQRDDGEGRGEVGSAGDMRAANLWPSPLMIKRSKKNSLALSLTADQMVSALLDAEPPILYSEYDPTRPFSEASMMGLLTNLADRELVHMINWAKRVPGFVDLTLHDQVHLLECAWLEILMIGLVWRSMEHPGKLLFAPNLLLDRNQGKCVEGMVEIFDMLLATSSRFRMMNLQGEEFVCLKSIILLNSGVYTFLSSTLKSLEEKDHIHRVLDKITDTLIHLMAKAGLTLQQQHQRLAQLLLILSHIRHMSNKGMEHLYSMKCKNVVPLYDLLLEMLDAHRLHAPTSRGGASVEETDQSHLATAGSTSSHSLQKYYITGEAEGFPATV

Leucine aminopeptidase = biological target: T3, Leucine aminopeptidase (Plasmodium falciparum 3D7, UniProt Q8IL11); experiment: P. falciparum M17LAP inhibitors, primary screen, biochemical, fluorogenic H-Leu-NHMec substrate, 1536-well (AID 1619); type: functional
T3 sequence (Q8IL11 whole entry): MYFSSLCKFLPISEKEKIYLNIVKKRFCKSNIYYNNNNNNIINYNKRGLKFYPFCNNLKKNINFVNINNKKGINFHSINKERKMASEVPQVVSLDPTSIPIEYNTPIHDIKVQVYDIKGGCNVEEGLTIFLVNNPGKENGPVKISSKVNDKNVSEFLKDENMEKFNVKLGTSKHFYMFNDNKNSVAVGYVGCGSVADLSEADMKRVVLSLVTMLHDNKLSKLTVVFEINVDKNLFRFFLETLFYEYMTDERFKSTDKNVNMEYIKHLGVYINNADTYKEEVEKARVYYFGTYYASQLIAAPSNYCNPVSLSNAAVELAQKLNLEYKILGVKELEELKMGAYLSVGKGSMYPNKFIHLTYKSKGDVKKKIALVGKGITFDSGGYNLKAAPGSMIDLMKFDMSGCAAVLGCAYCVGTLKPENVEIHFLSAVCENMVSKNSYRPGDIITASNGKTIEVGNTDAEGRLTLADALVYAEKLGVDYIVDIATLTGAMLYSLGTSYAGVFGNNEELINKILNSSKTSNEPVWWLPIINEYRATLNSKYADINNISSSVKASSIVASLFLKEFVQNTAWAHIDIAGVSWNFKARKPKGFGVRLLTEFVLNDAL

[6] = biological target: Induced myeloid leukemia cell differentiation protein Mcl-1 (Homo sapiens, UniProt Q07820); type: functional
X-box-binding protein 1 = biological target: T4, X-box-binding protein 1 (Homo sapiens, UniProt P17861); type: functional, Cricetulus griseus;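 further: confirmatory dose-response counter-screen serving a CHOP assay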
T4 sequence (P17861 whole entry): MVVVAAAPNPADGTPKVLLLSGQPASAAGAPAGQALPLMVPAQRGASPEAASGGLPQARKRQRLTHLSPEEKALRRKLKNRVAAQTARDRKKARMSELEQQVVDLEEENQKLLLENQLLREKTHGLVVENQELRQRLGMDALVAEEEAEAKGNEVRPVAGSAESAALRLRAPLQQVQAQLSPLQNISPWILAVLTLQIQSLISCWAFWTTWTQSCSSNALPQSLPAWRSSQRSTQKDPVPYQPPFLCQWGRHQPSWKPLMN

[7] = P. falciparum late gametocyte killing, dose response, luminescence (AID 1117278); type: functional, cell-based;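 further: gametocytes exposed to compound for 24 hours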
[8] = Jurkat T cell cytotoxicity, dose response, cytotoxicity control for P. falciparum gametocyte viability project, luminescence (AID 1117277); type: functional, cell-based;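 further: potency reflects loss of cellular ATP meaning fewer viable cells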
[9] = Vero E6 cell cytotoxicity, dose response, cytotoxicity control for non-replicating M. tuberculosis project, secondary assay (AID 492998); type: functional, VeroE6; conditions: Vero C1008
[10] = biological target: T5, Heat shock factor protein 1 (Mus musculus, UniProt P38532); experiment: inhibition of MG132-induced HSE-luciferase signal, confirmation, cell-based, NIH3T3, luminescence, dose retest (AID 2382); type: functional;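 further: NIH3T3 fibroblasts with HSF1-driven luciferase reporter stressed by proteasome inhibitor MG132; luminescence from HSF1-driven luciferase expression after 8 hours of MG132 stress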
T5 sequence (P38532 whole entry): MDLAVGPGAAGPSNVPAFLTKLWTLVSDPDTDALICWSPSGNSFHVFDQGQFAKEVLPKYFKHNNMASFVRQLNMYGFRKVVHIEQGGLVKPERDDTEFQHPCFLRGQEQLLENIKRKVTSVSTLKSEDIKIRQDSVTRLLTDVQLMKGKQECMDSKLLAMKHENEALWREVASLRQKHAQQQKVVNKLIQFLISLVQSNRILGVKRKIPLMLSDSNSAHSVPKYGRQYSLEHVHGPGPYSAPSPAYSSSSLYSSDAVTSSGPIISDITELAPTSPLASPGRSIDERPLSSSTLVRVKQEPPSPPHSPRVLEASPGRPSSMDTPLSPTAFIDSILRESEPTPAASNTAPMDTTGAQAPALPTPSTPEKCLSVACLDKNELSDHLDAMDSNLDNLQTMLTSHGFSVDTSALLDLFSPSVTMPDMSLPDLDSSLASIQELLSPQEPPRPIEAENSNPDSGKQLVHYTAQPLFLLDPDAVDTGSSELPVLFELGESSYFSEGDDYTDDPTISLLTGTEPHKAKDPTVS

[11] = biological target: Endoplasmic reticulum aminopeptidase 1 (Homo sapiens, UniProt Q9NZ08); experiment: ERAP1 aminopeptidase inhibitors, dose response, biochemical, cherry-pick, set 2, plate reader (AID 743314)
[12] = THP-1 cell cytotoxicity, dose response, cytotoxicity control for Vif-APOBEC3G degradation inhibitor project, THP-1 cells (AID 1117359); type: functional; conditions: Human immunodeficiency virus 1, THP-1
HEK293 = experiment: inhibitors of LMP1-driven NF-kB reporter, dose response, cell-based, HEK293, luciferase, cherry-pick (AID 588343); type: functional; conditions: Homo sapiens
[13] = biological target: DNA damage-inducible transcript 3 protein (Mus musculus, UniProt P35639); type: functional, Cricetulus griseus
Cytochrome P450 1A2 = biological target: T6, Cytochrome P450 1A2 (Homo sapiens, UniProt P05177);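 further: PubChem cytochrome P450 panel assay, CYP1A2 panel member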
T6 sequence (P05177 whole entry): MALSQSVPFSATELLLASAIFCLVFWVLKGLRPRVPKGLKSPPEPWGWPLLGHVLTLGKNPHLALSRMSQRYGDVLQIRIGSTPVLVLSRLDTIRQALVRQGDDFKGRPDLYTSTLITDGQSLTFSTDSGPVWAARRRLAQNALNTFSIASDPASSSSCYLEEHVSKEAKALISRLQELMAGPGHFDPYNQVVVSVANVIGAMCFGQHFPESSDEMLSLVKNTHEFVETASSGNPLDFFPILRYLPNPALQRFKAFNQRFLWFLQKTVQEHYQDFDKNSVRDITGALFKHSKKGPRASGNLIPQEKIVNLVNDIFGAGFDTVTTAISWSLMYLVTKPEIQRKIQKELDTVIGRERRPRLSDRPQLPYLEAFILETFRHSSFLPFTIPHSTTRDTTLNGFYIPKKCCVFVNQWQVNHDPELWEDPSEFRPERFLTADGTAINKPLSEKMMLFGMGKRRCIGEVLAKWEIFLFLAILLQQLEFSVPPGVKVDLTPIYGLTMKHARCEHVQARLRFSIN

Cytochrome P450 3A4 = Cytochrome P450 3A4 (Homo sapiens, UniProt P08684);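 further: CYP3A4 tested as one member of a cytochrome P450 panel screen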
Cytochrome P450 2C9 = Cytochrome P450 2C9 (Homo sapiens, UniProt P11712)
Sequence of Cytochrome P450 2C9 (P11712 whole entry): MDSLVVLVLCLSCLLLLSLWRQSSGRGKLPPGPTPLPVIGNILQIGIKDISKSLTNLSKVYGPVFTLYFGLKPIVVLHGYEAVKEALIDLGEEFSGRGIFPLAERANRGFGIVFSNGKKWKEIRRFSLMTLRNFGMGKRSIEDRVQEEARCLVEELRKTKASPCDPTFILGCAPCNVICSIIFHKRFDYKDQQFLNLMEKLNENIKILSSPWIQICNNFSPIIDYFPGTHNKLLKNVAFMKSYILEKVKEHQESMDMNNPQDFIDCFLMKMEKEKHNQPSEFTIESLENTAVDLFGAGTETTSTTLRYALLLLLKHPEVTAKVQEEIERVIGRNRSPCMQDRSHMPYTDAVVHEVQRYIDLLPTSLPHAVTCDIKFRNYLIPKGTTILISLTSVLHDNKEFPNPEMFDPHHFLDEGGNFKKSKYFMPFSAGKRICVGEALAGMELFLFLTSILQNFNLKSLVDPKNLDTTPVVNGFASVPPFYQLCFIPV

Sequence of DNA damage-inducible transcript 3 protein (P35639 whole entry): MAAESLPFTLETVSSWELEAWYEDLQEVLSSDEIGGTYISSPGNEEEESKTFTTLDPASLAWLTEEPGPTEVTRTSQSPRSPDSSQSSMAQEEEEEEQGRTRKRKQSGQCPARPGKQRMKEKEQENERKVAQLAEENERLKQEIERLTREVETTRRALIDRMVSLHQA
Sequence of Eukaryotic translation initiation factor 4E (P63073 whole entry): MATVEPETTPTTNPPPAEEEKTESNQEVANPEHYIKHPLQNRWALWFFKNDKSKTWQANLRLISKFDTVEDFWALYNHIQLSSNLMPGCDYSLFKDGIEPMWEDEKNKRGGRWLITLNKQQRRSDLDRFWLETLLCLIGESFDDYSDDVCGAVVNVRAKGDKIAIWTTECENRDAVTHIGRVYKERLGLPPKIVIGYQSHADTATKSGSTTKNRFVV
Sequence of Endoplasmic reticulum aminopeptidase 1 (Q9NZ08 whole entry): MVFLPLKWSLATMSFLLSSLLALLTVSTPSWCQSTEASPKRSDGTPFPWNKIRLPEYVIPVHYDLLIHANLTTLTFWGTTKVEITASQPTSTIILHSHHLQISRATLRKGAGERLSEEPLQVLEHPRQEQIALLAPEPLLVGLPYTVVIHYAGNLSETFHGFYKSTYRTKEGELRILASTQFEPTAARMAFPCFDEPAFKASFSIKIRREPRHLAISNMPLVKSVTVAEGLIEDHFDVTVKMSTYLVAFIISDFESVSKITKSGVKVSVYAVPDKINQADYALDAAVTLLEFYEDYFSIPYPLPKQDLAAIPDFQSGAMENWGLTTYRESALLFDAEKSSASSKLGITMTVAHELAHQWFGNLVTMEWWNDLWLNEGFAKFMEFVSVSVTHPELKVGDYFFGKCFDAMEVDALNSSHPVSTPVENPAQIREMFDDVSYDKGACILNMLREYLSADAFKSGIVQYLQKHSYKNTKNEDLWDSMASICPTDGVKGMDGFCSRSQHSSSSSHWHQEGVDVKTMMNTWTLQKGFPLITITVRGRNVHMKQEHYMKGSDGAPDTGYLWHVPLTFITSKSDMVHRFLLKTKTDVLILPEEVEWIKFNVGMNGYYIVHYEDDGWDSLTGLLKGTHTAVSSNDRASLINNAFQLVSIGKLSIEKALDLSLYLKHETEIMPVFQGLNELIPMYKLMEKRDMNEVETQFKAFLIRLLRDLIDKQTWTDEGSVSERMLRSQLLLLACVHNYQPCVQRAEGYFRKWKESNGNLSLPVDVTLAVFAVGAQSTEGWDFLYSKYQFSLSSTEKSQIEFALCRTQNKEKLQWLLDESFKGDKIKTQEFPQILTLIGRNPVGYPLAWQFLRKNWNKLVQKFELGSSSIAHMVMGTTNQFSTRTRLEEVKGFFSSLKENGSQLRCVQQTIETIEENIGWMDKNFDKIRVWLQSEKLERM
Sequence of Cytochrome P450 3A4 (P08684 whole entry): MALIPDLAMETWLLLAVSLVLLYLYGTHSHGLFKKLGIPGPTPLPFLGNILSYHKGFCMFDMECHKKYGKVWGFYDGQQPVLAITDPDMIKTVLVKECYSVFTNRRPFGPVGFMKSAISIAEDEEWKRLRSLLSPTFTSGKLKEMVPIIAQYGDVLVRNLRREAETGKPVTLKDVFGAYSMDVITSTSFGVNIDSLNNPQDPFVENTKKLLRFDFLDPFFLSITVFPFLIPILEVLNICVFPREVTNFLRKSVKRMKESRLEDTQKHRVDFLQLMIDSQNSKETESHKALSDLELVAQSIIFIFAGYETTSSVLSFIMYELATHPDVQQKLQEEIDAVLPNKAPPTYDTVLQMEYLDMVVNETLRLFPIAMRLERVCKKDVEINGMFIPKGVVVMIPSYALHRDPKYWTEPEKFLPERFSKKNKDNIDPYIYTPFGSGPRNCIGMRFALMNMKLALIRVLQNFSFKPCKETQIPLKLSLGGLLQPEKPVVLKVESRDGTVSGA
Sequence of Induced myeloid leukemia cell differentiation protein Mcl-1 (Q07820 whole entry): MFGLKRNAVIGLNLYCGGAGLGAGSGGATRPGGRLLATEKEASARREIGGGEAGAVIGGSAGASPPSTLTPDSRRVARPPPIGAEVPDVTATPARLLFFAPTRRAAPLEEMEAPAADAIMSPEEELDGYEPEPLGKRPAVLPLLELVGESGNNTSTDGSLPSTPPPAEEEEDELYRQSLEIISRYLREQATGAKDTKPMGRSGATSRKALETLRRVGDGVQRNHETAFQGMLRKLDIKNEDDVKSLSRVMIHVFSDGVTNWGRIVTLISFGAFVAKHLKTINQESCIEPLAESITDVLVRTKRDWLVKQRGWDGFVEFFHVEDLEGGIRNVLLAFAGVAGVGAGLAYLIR

Structure (SMILES): CC(C)CCNCC(O)CON=C1c2ccccc2-c2ccccc21 (stereo unspecified)
- CC50 [1]: 12.6 µM (active)
- CC50 [2]: 13.8 µM (active)
- CC50 [3]: 14.4 µM (active)
- IC50 (cells): 16.8 µM (active)

Structure (SMILES): COCCCNC(=O)c1cccn2c(=O)c3cc4ccccc4cc3nc12
- IC50 (Protein Tat): > 100 µM (active)

Structure (SMILES): COc1ccc(CN2C(=O)c3ccccc3C2C(=O)NCc2cccnc2)c(OC)c1 (stereo unspecified)
- IC50 [4]: > 100 µM (active)

Structure (SMILES): Cc1ccc(OCC(=O)O/N=C(\N)Cc2ccc([N+](=O)[O-])cc2)cc1C
- AC50 (HeLa): > 350 µM (inactive)

Structure (SMILES): CCOc1cc(C2c3c(C)n[nH]c3C(=O)N2c2ccc(C)cc2)ccc1O (stereo unspecified)
- IC50 [5]: > 64 µM (inactive)

Structure (SMILES): CCCn1nc(C(=O)OCC(=O)c2ccc3c(c2)NC(=O)CO3)c2ccccc2c1=O
- IC50 (Estrogen receptor): 37.9 µM (not active)

Structure (SMILES): Cc1ccc(OCc2ccc(C(=O)O)o2)c([N+](=O)[O-])c1
- IC50 (Leucine aminopeptidase): 31.8 µM (active)

Structure (SMILES): Cc1ccc(/C=c2\sc3nc(-c4ccco4)nn3c2=O)o1
- IC50 (Estrogen receptor): 13.9 µM (active)
- IC50 [6]: 4.61 µM (active)

Structure (SMILES): CC(C)=CCc1c(O)c(CC=C(C)C)c2c(c1O)C(=O)CC(c1ccc(O)cc1)O2 (stereo unspecified)
- Absolute IC50 (XBP1) (X-box-binding protein 1): 10 µM

Structure (SMILES): CCOc1ccc(S(=O)(=O)N2CCCC2)cc1
- IC50 [7]: > 109 µM (inactive)
- IC50 [8]: > 83.3 µM (inactive)

Structure (SMILES): O=C(Nc1nnc(C2CC2)o1)c1ccc(S(=O)(=O)N2CCCCC2)cc1
- CC50 [2]: > 40 µM (active)
- CC50 [3]: > 20 µM (active)
- CC50 [9]: 11.5 µM (active)
- IC50 (cells): 10.3 µM (active)

Structure (SMILES): O=C(COC(=O)Cc1c(Cl)cccc1Cl)Nc1ccc(OC(F)(F)F)cc1
- EC50 [10]: > 195 µM (not active)
- Absolute IC50 (XBP1) (X-box-binding protein 1): 10 µM

Structure (SMILES): COc1ccc(N(CC(=O)NCc2ccccc2C)S(=O)(=O)c2ccc(C)cc2)cc1OC
- IC50 [4]: > 100 µM (active)

Structure (SMILES): COCCn1cnc2c1c(=O)n(CC(=O)Nc1cc(C)on1)c(=O)n2Cc1ccccc1
- IC50 [7]: > 109 µM (inactive)
- IC50 [8]: > 83.3 µM (inactive)

Structure (SMILES): Cc1cc(S(=O)(=O)NC2CCN(Cc3ccccc3)CC2)c(C)cc1Cl
- AC50 (HeLa): 52.3 µM (active)

Structure (SMILES): CC1CCN(C(=S)c2ccccc2O)CC1
- IC50 [5]: > 64 µM (inactive)

Structure (SMILES): CCCc1cc(=O)oc2c(CN3CCN(C)CC3)c(O)ccc12
- AC50 [11]: 7.87 µM (active)

Structure (SMILES): S=C(Nc1ccc2c(c1)OCCO2)Nc1ccc2c(c1)OCO2
- IC50 (Protein Tat): > 100 µM (active)
- CC50 [12]: > 40 µM (active)
- IC50 [4]: > 100 µM (active)

Structure (SMILES): Cc1c(N)cc(S(=O)(=O)O)cc1NC(=O)c1cccc([N+](=O)[O-])c1
- AC50 (HeLa): 56.4 µM (active)

Structure (SMILES): O=C(Nc1ccc2c(c1)nc1n2CCSC1)c1ccco1
- IC50 (Estrogen receptor): 14.5 µM (active)
- AC50 (HEK293): 3.52 µM (active)

Structure (SMILES): Cc1ccc(NCC(=O)N/N=C/c2cccc(Oc3ccccc3)c2)cc1
- Absolute IC50 (CHOP) [13]: 10 µM
- Absolute IC50 (XBP1) (X-box-binding protein 1): < 10 µM

Structure (SMILES): O=C(O)c1ccccc1-c1ccccc1C(=O)Nc1ccc2c(c1)[nH]c(=O)c1ccccc12
- IC50 (Leucine aminopeptidase): 38.8 µM (active)
- AC50 (Cytochrome P450 1A2): 0.00316 µM (inconclusive)
- AC50 (Cytochrome P450 3A4): 3.98 µM (inconclusive)
- AC50 (Cytochrome P450 2C9): 3.16 µM (inconclusive)

Structure (SMILES): CCCn1c(O)nnc1SCC(=O)c1cc(C)ccc1C
- IC50 [4]: > 100 µM (active)

Structure (SMILES): Cc1cc(NC(=O)CSc2nc3cc4c(cc3c(=O)n2CCc2ccccc2)OCO4)no1
- Absolute IC50 (CHOP) [13]: 10 µM
- Absolute IC50 (XBP1) (X-box-binding protein 1): 10 µM

Structure (SMILES): Cc1ccc(S(=O)(=O)N2CCN(C(=O)CCC(=O)NCCc3ccc(F)cc3)CC2)cc1
- IC50 [7]: > 109 µM (inactive)
- IC50 [8]: > 83.3 µM (inactive)

Structure (SMILES): COc1cccc(OCCNc2ccc([N+](=O)[O-])cn2)c1
- AC50 (HeLa): 49.3 µM (active)

Structure (SMILES): Cc1cc(=O)oc2cc(NS(=O)(=O)c3ccc(F)cc3)ccc12
- AC50 [11]: 8.8 µM (active)
